Test results reported in patent publication EP4613859A1, “TLR SIGNALING INHIBITORY PEPTIDE AND COMPOSITION INCLUDING SAME FOR PREVENTION OR TREATMENT OF INFLAMMATORY DISEASES” (Korea Institute of Science and Technology, priority 2022, dated 2025).

Assays:
human MAL = assay: Phage display screening of TIR domain-derived peptide library against immobilized MAL, NGS analysis after four rounds; assay type: binding; details: for NGS count: phages remaining after fourth round
Description: (§1) First, vector cloning was performed by synthesizing a DNA sequence for expressing each peptide belonging to the library constructed in Example 1. Vector cloning was performed using p3/p8 phagemids.
(§2) After the fourth round, the remaining phages were obtained by binding to the finally immobilized target proteins, and peptide sequences binding to the target and the relative distribution of each sequence were confirmed by performing NGS analysis on phagemids in the phages.

human MYD88 = assay: Phage display screening of TIR domain-derived peptide library against immobilized MyD88, NGS analysis after four rounds; assay type: binding; details: for NGS count: phages remaining after fourth round
Description: as §1, §2

[1] = P3_MAL: library displayed on P3 coat protein
[2] = P3_MAL: relative distribution of the sequence in NGS
[3] = P8_MAL: library displayed on P8 coat protein
[4] = P8_MAL: relative distribution of the sequence in NGS
[5] = P8_MyD88: library displayed on P8 coat protein
[6] = P8_MyD88: relative distribution of the sequence in NGS
[7] = P3_MyD88: library displayed on P3 coat protein
[8] = P3_MyD88: relative distribution of the sequence in NGS

| Sequence | NGS count (human MYD88; [5]) | Population (human MYD88; [6]) | further results |
| --- | --- | --- | --- |
| SFFWNKLRYHLPAPQH |  |  | NGS count (human MAL; [1]): 2297; Population (human MAL; [2]): 0.86% |
| SEFIQKIILWMNPKIV |  |  | NGS count (human MAL; [3]): 4458; Population (human MAL; [4]): 1.38% |
| DPQDLDWFYERLVSLL | 13137 | 5.06% |  |
| SLLYDHLRWLGIRAFL |  |  | NGS count (human MAL; [3]): 2576; Population (human MAL; [4]): 0.80% |
| SENYATSPWALDELVL |  |  | NGS count (human MYD88; [7]): 5494; Population (human MYD88; [8]): 1.89% |
| DPQDLEWFYERLFSQM | 4488 | 1.73% |  |
| YLISYIFNELARAGFS |  |  | NGS count (human MAL; [3]): 295; Population (human MAL; [4]): 0.09% |
| WFLFTVRSAIYAMSPA |  |  | NGS count (human MAL; [3]): 3156; Population (human MAL; [4]): 0.97% |
| SAAYDDFWDRLIRMIE | 5335 | 2.06% |  |
| KLIQGWFLYRLLKIEQ |  |  | NGS count (human MAL; [3]): 2068 |
| KMQKWKDALYEAANLS |  |  | NGS count (human MAL; [1]): 4427; Population (human MAL; [2]): 1.66% |
| GLSWGPYEWWMGLYDA | 1965 | 0.76% |  |
| RLLKWKEALHQFHSWV |  |  | NGS count (human MAL; [1]): 14924; Population (human MAL; [2]): 5.61% |
| FTLAVHVRNWLVGGFI |  |  | NGS count (human MAL; [3]): 520 |
| WDFASNMEQFWDRLYY | 7352 | 2.83% |  |
| YAASPWWFDELVKIVG | 3433 | 1.32% |  |
| IDDDHLTYLVRLLLSR | 3059 | 1.18% |  |
| YYLDPSHLRKQSGEFG |  |  | NGS count (human MYD88; [7]): 2538; Population (human MYD88; [8]): 0.74% |
| YLLLSVFQTIFARRTE | 7165 | 2.76% |  |
| VANILGYHWIDWEYFV | 2029 | 0.78% |  |
| YLRADDSWFWEKLLYA | 4067 | 1.57% |  |
| VQWDDPWFWDKLAYAM | 4902 | 1.89% |  |
| PSEVRKQTGSLAKAFA |  |  | NGS count (human MYD88; [7]): 2253; Population (human MYD88; [8]): 0.66% |
| HLLKEFDKKLITAFKD |  |  | NGS count (human MYD88; [7]): 2399; Population (human MYD88; [8]): 0.70% |

| Sequence | NGS count (human MYD88; [5]) | Population (human MYD88; [6]) | further results |
| --- | --- | --- | --- |
| DYASSTWWLRELLQIA | 4111 | 1.58% |  |
| WALDELLKILYANETM | 10515 | 4.05% |  |
| YTALTNSGFHTFRDND |  |  | NGS count (human MYD88; [7]): 17600; Population (human MYD88; [8]): 5.12% |
| DPQDLDWFYERLVSLF | 54757 | 21.10% |  |
| DPQDLQWFYERLVSLI | 5730 | 2.21% |  |
| SPQEQDGFWVRLIEAL | 1842 | 0.71% |  |
| DWVWDYLLPNLEGPAG | 19394 | 7.47% |  |
| YASSSWALDELLRILY | 2327 | 0.90% |  |
| PEKDNGGENAFINNIV |  |  | NGS count (human MYD88; [7]): 2498; Population (human MYD88; [8]): 0.73% |
| HWIDWEYFVGIEDHIK | 3422 | 1.32% |  |
| LGYHWIDWEYFVGIED | 25216 | 9.72% |  |
| LEANDSLFWDRLLYSL | 1465 | 0.56% |  |
| SELRVVDDGSVSPLEM |  |  | NGS count (human MYD88; [7]): 4872; Population (human MYD88; [8]): 1.42% |
| DSLFWDRLLYSLHVTE | 7586 | 2.92% |  |
| WALDELLQILHARELF | 14404 | 5.55% |  |
| DWVWEHFFPMEEKDQT | 1538 | 0.59% |  |
| AVDKETDKIQTPLKNA |  |  | NGS count (human MYD88; [7]): 4790; Population (human MYD88; [8]): 1.39% |
| FLSYRALEKRFGPIGQ |  |  | NGS count (human MYD88; [7]): 3289; Population (human MYD88; [8]): 0.96% |
| PQDLEWFYERLVSLIL | 10568 | 4.07% |  |
| MFGGDTFHDFLDLISM | 1489 | 0.57% |  |
| RKGDLISDELLIAIEE |  |  | NGS count (human MYD88; [7]): 2452; Population (human MYD88; [8]): 0.71% |
| NGHESEIIKEIVDTIV |  |  | NGS count (human MYD88; [7]): 4233; Population (human MYD88; [8]): 1.23% |
| YASYDDNDYYWVTHVLLRHL | 5893 | 2.66% |  |
| TSHLHHALRLNKIETF |  |  | NGS count (human MYD88; [7]): 2076; Population (human MYD88; [8]): 0.60% |
